pIC50: −log10 of the molar value. Some results are limits rather than exact numbers.

Experiment [1] has as its target T1, PRMT5 (Homo sapiens, UniProt O14744).
T1 construct: purchased Viva (custom protein)
In words: PRMT5 biochemical IC50 assay with SAM as cofactor. The conditions noted are these: PRMT5, SAM as cofactor; read-out: SAM IC50.

Experiment [2] has as its system HAP1 MTAP-intact cell line. In words: SDMA in-cell western assay, HAP1 MTAP-intact. The format is cell-based. The following applies: Homo sapiens, HAP1, SDMA in-cell western, HAP1 MTAP-intact; read-out: MTAP HAP1 intact IC50. In outline:
(§1)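 Isogenic HAP1 pair: the MTAP-intact line expresses endogenous MTAP, and the deleted line is MTAP-null. Symmetric dimethylarginine was detected by in-cell western and IC50 values derived for each line.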

Experiment [3] addresses T1, PRMT5. In words: PRMT5 biochemical IC50 assay with no cofactor. The conditions noted are these: PRMT5, no cofactor. An excerpt: Table 1 indicates IC50 values (μM) against PRMT5 for exemplary compounds in the presence of SAM as cofactor, with no cofactor, and with MTA as cofactor, respectively (columns 4-6). […] Ki values can be calculated from the IC50 values as described in the Examples section. As detailed in the Examples section, for the assay performed in the presence of SAM, IC50=Ki×1.5 (Ki=IC50/1.5).

Experiment [4] concerns HAP1 MTAP-deleted cell line. Description: Viability assay, MTAP-deleted cell line. The class given is cell-based. The conditions noted are these: Homo sapiens, read-out: HAP1 MTAP deleted viability. An excerpt: Table 1 additionally indicates IC50 values in a viability assay for the MTAP-deleted cell line (column 10), indicating the effect of treatment with compound on cell survival.

The target in experiment [5] is T1, PRMT5. Description: PRMT5 biochemical IC50 assay with MTA as cofactor. The conditions noted are these: PRMT5, MTA as cofactor; read-out: MTA IC50.
In experiment [6] the test system is HAP1 MTAP-deleted cell line. Description: SDMA in-cell western assay, HAP1 MTAP-deleted. The format is cell-based. The following applies: for pIC50: Homo sapiens, HAP1, SDMA in-cell western, HAP1 MTAP-deleted; for MTAP intact/deleted ratio: SDMA in-cell western. An outline of the steps: as §1
[7] abbreviates: HAP1, viability assay, MTAP-deleted cell line.
Where [8] appears, read: read-out: HAP1 MTAP deleted IC50.
Where [9] appears, read: IC50 ratio HAP1 MTAP-intact / HAP1 MTAP-deleted.
Where [10] appears, read: HAP1, viability IC50, MTAP-deleted cell line.
Setting [11] is: read-out: HAP 1 MTAP deleted IC50.
Setting [12] is: HAP1, viability assay, HAP1 MTAP-deleted.

T1 sequence (O14744 whole entry): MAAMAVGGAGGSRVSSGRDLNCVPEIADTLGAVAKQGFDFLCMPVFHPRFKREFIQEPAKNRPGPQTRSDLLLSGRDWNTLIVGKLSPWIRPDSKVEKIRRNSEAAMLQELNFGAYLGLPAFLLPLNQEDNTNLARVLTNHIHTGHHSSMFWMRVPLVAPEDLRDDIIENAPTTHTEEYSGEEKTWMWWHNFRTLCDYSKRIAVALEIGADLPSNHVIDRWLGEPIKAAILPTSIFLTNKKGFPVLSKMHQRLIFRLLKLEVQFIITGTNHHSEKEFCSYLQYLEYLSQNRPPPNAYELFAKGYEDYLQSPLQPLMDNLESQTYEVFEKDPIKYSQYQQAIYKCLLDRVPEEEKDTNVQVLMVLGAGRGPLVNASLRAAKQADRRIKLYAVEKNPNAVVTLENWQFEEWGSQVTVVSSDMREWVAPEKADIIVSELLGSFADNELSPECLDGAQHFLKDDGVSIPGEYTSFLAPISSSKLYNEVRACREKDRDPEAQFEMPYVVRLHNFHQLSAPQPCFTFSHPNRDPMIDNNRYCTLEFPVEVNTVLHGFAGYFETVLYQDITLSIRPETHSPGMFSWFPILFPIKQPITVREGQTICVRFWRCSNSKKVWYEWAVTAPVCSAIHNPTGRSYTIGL
T1 sequence (Q9BQA1 whole entry partner): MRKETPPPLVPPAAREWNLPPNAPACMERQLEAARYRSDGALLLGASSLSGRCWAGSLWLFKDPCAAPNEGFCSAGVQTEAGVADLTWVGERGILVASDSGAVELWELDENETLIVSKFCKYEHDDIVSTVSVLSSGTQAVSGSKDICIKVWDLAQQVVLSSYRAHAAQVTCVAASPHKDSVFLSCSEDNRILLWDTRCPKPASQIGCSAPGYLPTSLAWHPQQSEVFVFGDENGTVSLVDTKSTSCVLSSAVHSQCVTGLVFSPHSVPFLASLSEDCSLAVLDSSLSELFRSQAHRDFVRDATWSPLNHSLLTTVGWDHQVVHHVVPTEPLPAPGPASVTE

As to `Cc1cc(NC(=O)C(=O)N2CC(C)CC(C)C2c2ccccc2)cnc1N` (mixture of isomers) [Compound 314, N-(6-amino-5-methyl-3-pyridyl)-2-(3,5-dimethyl-2-phenyl-1-piperidyl)-2-oxo-acetamide], the pIC50 was less than 6.30 at PRMT5 [1]; less than 6.00 in experiment [2]; 6.30 to 7.30 on PRMT5 [3] (read-out: No Cofactor/rel IC50); 5.00 to 6.00 in experiment [4] (setting [7]); 6.30 to 7.30 on PRMT5 [5]; 6.00 to 7.00 in experiment [6] (setting [8]). For the same molecule, the MTAP intact/deleted ratio result in experiment [6] (setting [9]) is “A (an IC50 ratio greater than or equal to 10 fold)”.
As for `COc1ncc(NC(=O)C(=O)N2C[C@H](C)CC[C@H]2c2ccc3c(c2)CCC(=O)N3)cc1C(N)=O` (single isomer, unassigned) [Compound 674], the pIC50 was 6.30 to 7.30 at PRMT5 [1]; 6.00 to 7.00 in experiment [2]; more than 7.30 at PRMT5 [3] (read-out: No Cofactor/rel IC50); more than 6.00 in experiment [4] (setting [10]); more than 7.30 at PRMT5 [5]; more than 7.00 in experiment [6] (setting [11]). Moreover, in experiment [6] (setting [9]), the MTAP intact/deleted ratio entry is given as “A (an IC50 ratio greater than or equal to 10 fold)”.
`Cc1cc(NC(=O)C(=O)N2C[C@H](C)CC[C@H]2c2ccc3[nH]c(N)nc3c2)cnc1C` (racemic) [Compound 992]: the pIC50 was 6.30 to 7.30 at PRMT5 [1]; less than 6.00 in experiment [2]; 6.30 to 7.30 on PRMT5 [3] (read-out: No Cofactor/rel IC50); 5.00 to 6.00 in experiment [4] (setting [7]); more than 7.30 on PRMT5 [5]; more than 7.00 in experiment [6] (setting [11]). For the same molecule, the MTAP intact/deleted ratio result in experiment [6] (setting [9]) is “A (an IC50 ratio greater than or equal to 10 fold)”.
As for `[H][C@@]1([C@]2([H])C[C@@]3(C[C@H](O)C3)C2)CC[C@@H](C)CN1C(=O)C(=O)Nc1cnc(N)c(C)c1` (single isomer, unassigned) [Compound 767], the pIC50 at PRMT5 [1] was 6.30 to 7.30; in experiment [2] it was less than 6.00; at PRMT5 [3] (read-out: No Cofactor/rel IC50), less than 6.30; in experiment [4] (setting [12]) it was less than 5.00; on PRMT5 [5], 6.30 to 7.30; in experiment [6] (setting [8]), less than 6.00. In experiment [6] (setting [9]), the MTAP intact/deleted ratio entry is “B (an IC50 ratio greater than or equal to 3 fold but lower than 10 fold)”.
As to `CNS(=O)(=O)c1cccc([C@@H]2CC[C@@H](C)CN2C(=O)C(=O)Nc2cnc(N)c(C)c2)c1` (racemic) [Compound 691, N-(6-amino-5-methyl-3-pyridyl)-2-[(2S,5R)-5-methyl-2-[3-(methylsulfamoyl)phenyl]-1-piperidyl]-2-oxo-acetamide], the pIC50 on PRMT5 [1] is 6.30 to 7.30; in experiment [2], less than 6.00; at PRMT5 [3] (read-out: No Cofactor/rel IC50) it was 6.30 to 7.30; in experiment [4] (setting [10]), 5.00 to 6.00; at PRMT5 [5], more than 7.30; in experiment [6] (setting [11]), 6.00 to 7.00. Further, in experiment [6] (setting [9]), the MTAP intact/deleted ratio entry is given as “A (an IC50 ratio greater than or equal to 10 fold)”.
Regarding `CCc1cc(NC(=O)C(=O)N2C[C@@H](C)CC[C@@H]2c2ccc3sc(C4CCNCC4)nc3c2)cnc1N` [Compound 1240, N-(6-amino-5-ethyl-3-pyridyl)-2-[(2R,5S)-5-methyl-2-[2-(4-piperidyl)-1,3-benzothiazol-5-yl]-1-piperidyl]-2-oxo-acetamide], the pIC50 at PRMT5 [1] is more than 7.30; in experiment [2], more than 7.00; on PRMT5 [3] (read-out: No Cofactor/ rel IC50), more than 7.30; in experiment [4] (HAP1, viability, HAP1 MTAP-deleted cell line), more than 6.00; at PRMT5 [5], more than 7.30; in experiment [6] (setting [11]) it was more than 7.00. Moreover, in experiment [6] (setting [9]), the “MTAP intact/deleted ratio” value is “B (an IC50 ratio greater than or equal to 3 fold but lower than 10 fold)”.
`Cc1cc(NC(=O)C(=O)N2C[C@@H](C)CC[C@@H]2c2ccc(C(F)(F)F)c(Cl)c2)cnc1N` (single isomer, unassigned) [Compound 703]: the pIC50 at PRMT5 [1] is 6.30 to 7.30; in experiment [2] it was 6.00 to 7.00; on PRMT5 [3] (read-out: No Cofactor/rel IC50), 6.30 to 7.30; in experiment [4] (setting [10]) it was 5.00 to 6.00; at PRMT5 [5], more than 7.30; in experiment [6] (setting [11]) it was 6.00 to 7.00. Also, the MTAP intact/deleted ratio entry in experiment [6] (setting [9]) was “C (an IC50 ratio of less than 3 fold)”.
With `C[C@@H]1CC[C@@H](c2cccc(C3CCC3)c2)N(C(=O)C(=O)Nc2cncc(C(N)=O)c2)C1` (racemic) [Compound 261, rac-5-{2-[(2R,5S)-2-(3-Cyclobutylphenyl)-5-methylpiperidin-1-yl]-2-oxoacetamido}pyridine-3-carboxamide], the pIC50 at PRMT5 [1] is 6.30 to 7.30; in experiment [2], less than 6.00; at PRMT5 [3] (read-out: No Cofactor/rel IC50), 6.30 to 7.30; in experiment [4] (setting [7]), 5.00 to 6.00; at PRMT5 [5] it was more than 7.30; in experiment [6] (setting [8]) it was more than 7.00. For the same molecule, the MTAP intact/deleted ratio result in experiment [6] (setting [9]) is “A (an IC50 ratio greater than or equal to 10 fold)”.
Regarding `COc1cc([C@@H]2CC[C@@H](C)CN2C(=O)C(=O)Nc2cncc(C(N)=O)c2)ccn1` (racemic) [Compound 225, rac-5-{2-[(2R,5S)-2-(2-Methoxypyridin-4-yl)-5-methylpiperidin-1-yl]-2-oxoacetamido}pyridine-3-carboxamide], the pIC50 at PRMT5 [1] was 6.30 to 7.30; in experiment [2], less than 6.00; on PRMT5 [3] (read-out: No Cofactor/rel IC50), 6.30 to 7.30; in experiment [4] (setting [7]), 5.00 to 6.00; at PRMT5 [5], 6.30 to 7.30; in experiment [6] (setting [8]) it was more than 7.00. In addition, the MTAP intact/deleted ratio entry in experiment [6] (setting [9]) is recorded as “A (an IC50 ratio greater than or equal to 10 fold)”.
`C[C@H]1CC[C@H](c2ccc3sc(C4CCN(C)CC4)nc3c2)N(C(=O)C(=O)Nc2cnc(N)c([C@@H]3CCOC3)c2)C1` (single isomer, unassigned) [Compound 1154]: the pIC50 at PRMT5 [1] is more than 7.30; in experiment [2], more than 7.00; at PRMT5 [3] (read-out: No Cofactor/rel IC50), more than 7.30; in experiment [4] (setting [7]), more than 6.00; on PRMT5 [5], more than 7.30; in experiment [6] (setting [8]) it was more than 7.00. Besides, in experiment [6] (IC50 ratio HAP1 MTAP-intact vs HAP1 MTAP-deleted), the MTAP intact/deleted ratio entry was “A (an IC50 ratio greater than or equal to 10 fold)”.
Consider `C[C@H]1CC[C@H](c2cccc(C(F)(F)F)c2)N(C(=O)C(=O)Nc2cncc(C(N)=O)c2)C1` (single isomer, unassigned) [Compound 509], for which the pIC50 on PRMT5 [1] was 6.30 to 7.30; in experiment [2], less than 6.00; at PRMT5 [3] (read-out: No Cofactor/rel IC50), 6.30 to 7.30; in experiment [4] (setting [7]), 5.00 to 6.00; at PRMT5 [5] it was more than 7.30; in experiment [6] (setting [8]) it was more than 7.00. For the same molecule, in experiment [6] (setting [9]), the MTAP intact/deleted ratio result was “A (an IC50 ratio greater than or equal to 10 fold)”.
As to `Cc1cc(NC(=O)C(=O)N2C[C@@H](C)CC[C@@H]2c2cc3[nH]ncc3s2)cnc1N` (single isomer, unassigned) [Compound 824], the pIC50 was 6.30 to 7.30 at PRMT5 [1]; 6.00 to 7.00 in experiment [2]; more than 7.30 on PRMT5 [3] (read-out: No Cofactor/rel IC50); more than 6.00 in experiment [4] (setting [12]); more than 7.30 at PRMT5 [5]; more than 7.00 in experiment [6] (setting [8]). Moreover, the MTAP intact/deleted ratio result in experiment [6] (setting [9]) was “A (an IC50 ratio greater than or equal to 10 fold)”.
Regarding `Cc1cc(NC(=O)C(=O)N2C[C@H](C)[C@@H](CC(C)C)C[C@H]2c2ccc3scnc3c2)cnc1N` (single isomer, unassigned) [Compound 1210], the pIC50 was 6.30 to 7.30 on PRMT5 [1]; less than 6.00 in experiment [2]; 6.30 to 7.30 at PRMT5 [3] (read-out: No Cofactor/rel IC50); 5.00 to 6.00 in experiment [4] (setting [7]); more than 7.30 on PRMT5 [5]; 6.00 to 7.00 in experiment [6] (setting [8]).
On to `C[C@H]1CC[C@H](c2ccc3sc(C(F)(F)F)nc3c2)N(C(=O)C(=O)Nc2cncc(C(N)=O)c2)C1` (single isomer, unassigned) [Compound 1023], for which the pIC50 on PRMT5 [1] is 6.30 to 7.30; in experiment [2] it was 6.00 to 7.00; on PRMT5 [3] (read-out: No Cofactor/rel IC50), more than 7.30; in experiment [4] (setting [7]) it was more than 6.00; at PRMT5 [5], more than 7.30; in experiment [6] (setting [11]), more than 7.00. Besides, the MTAP intact/deleted ratio result in experiment [6] (setting [9]) was “A (an IC50 ratio greater than or equal to 10 fold)”.
